Where two headings read alike, the source gives them in different places.

The target of this test is T1, mTLR7 (Mus musculus, UniProt P58681).
T1 construct: Splenocytes isolated from male C57/BL6 mice; from tissue; host or cells: splenocytes from the spleen of male C57BL/6 mice
T1 sequence (P58681 27-1050): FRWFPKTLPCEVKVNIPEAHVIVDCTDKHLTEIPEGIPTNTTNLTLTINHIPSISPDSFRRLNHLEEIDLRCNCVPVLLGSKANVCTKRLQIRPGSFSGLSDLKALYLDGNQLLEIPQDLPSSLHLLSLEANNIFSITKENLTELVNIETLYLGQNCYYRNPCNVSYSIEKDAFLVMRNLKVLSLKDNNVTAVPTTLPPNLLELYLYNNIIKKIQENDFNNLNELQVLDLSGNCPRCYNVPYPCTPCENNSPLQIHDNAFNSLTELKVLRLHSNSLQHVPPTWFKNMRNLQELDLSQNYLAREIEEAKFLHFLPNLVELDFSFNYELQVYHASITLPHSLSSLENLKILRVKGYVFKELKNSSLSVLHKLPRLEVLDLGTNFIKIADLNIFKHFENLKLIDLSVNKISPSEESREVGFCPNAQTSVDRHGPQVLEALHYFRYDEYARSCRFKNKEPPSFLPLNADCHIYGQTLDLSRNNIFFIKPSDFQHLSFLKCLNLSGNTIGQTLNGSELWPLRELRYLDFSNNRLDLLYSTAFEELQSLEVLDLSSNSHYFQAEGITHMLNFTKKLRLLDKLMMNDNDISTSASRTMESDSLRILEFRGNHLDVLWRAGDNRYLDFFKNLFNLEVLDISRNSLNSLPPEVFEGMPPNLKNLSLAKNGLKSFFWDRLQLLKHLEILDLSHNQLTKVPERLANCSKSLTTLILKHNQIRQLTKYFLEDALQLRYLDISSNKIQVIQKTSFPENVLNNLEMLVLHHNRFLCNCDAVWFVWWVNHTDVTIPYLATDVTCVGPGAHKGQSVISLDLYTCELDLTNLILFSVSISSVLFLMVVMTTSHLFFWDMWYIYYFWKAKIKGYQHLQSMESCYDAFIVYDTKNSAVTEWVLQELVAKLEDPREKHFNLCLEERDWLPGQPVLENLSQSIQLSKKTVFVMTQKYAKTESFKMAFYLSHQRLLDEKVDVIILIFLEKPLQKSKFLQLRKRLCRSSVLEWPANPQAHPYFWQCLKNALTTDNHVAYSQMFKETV
In words: mTLR7 antagonism (IL-6 and TNF-α release assay) in mouse splenocytes, R0006/DOTAP stimulated. It counts as cell-based. To be noted: 1 μM, mouse splenocytes. The gist of the method:
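C57BL6 splenocytes (0.2 million/well) preincubated 30 min with compounds (30 μM to 1 nM, 0.3% DMSO), then stimulated with R0006/DOTAP liposome complex at 1 μg/ml final, overnight, 37 °C, 5% CO2. IL-6 and TNF-α in supernatant by ELISA; IC50 from inhibition curves.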

[1] abbreviates: IL-6 release, read-out: mTLR7 inhibitory activity (% at 1 μM), IL-6.
[2] abbreviates: TNF-α release, read-out: mTLR7 inhibitory activity (% at 1 μM), TNF-α.

Regarding `Cc1cc2c(cc(CCN3CCOCC3)n2C)c(-c2ccc(N3CCN(C(C)C)CC3)cc2C)n1` [Example B15, 4-[2-[4-[4-(4-isopropylpiperazin-1-yl)-2-methyl-phenyl]-1,6-dimethyl-pyrrolo[3,2-c]pyridin-2-yl]ethyl]morpholine], the inhibition at 1 µM was determined as 88% under setting [1] and 83% under setting [2]. On the same counts, the results for `Cc1cc2c(cc(CCN3CCOCC3)n2C)c(-c2ccc(N3CCN(C(C)C)CC3)c(C)c2)n1` [Example B16, 4-[2-[4-[4-(4-isopropylpiperazin-1-yl)-3-methyl-phenyl]-1,6-dimethyl-pyrrolo[3,2-c]pyridin-2-yl]ethyl]morpholine] are 100% and 100%. On the same counts, the results for `Cc1cc2c(cc(CCN3CCOCC3)n2C)c(-c2ccc(N3CCN(C(C)C)CC3)cc2C(F)(F)F)n1` [Example B17, 4-[2-[4-[4-(4-isopropylpiperazin-1-yl)-2-(trifluoromethyl)phenyl]-1,6-dimethyl-pyrrolo[3,2-c]pyridin-2-yl]ethyl]morpholine] are 93% and 90%. `Cc1cc2c(cc(CCN3CCOCC3)n2C)c(-c2ccc(N3CCN(C(C)C)CC3)c(C(F)(F)F)c2)n1` [Example B18, 4-[2-[4-[4-(4-isopropylpiperazin-1-yl)-3-(trifluoromethyl)phenyl]-1,6-dimethyl-pyrrolo[3,2-c]pyridin-2-yl]ethyl]morpholine]: the inhibition at 1 µM came out at 100% under setting [1] and 100% under setting [2]. As to `Cc1cc2c(cc(CCN3CCOCC3)n2C)c(-c2ccc(N3CCN(C(C)C)CC3)cc2F)n1` [Example B19, 4-[2-[4-[2-fluoro-4-(4-isopropylpiperazin-1-yl)phenyl]-1,6-dimethyl-pyrrolo[3,2-c]pyridin-2-yl]ethyl]morpholine], the inhibition at 1 µM by setting is: under setting [1], 100%; under setting [2], 100%. Consider `COc1cc(N2CCN(C(C)C)CC2)ccc1-c1nc(C)cc2c1cc(CCN1CCOCC1)n2C` [Example B20, 4-[2-[4-[4-(4-isopropylpiperazin-1-yl)-2-methoxy-phenyl]-1,6-dimethyl-pyrrolo[3,2-c]pyridin-2-yl]ethyl]morpholine], for which the inhibition at 1 µM was determined as 70% under setting [1] and 57% under setting [2].

For the compound `Cc1cc2c(cc(CCN3CCOCC3)n2C)c(-c2cccc(N3CCN(C(C)C)CC3)c2)n1` [Example B21, 4-[2-[4-[3-(4-isopropylpiperazin-1-yl)phenyl]-1,6-dimethyl-pyrrolo[3,2-c]pyridin-2-yl]ethyl]morpholine], the inhibition at 1 µM was determined as 100% under setting [1] and 100% under setting [2].

On to `COc1cc(-c2nc(C)cc3c2cc(CCN2CCOCC2)n3C)ccc1N1CCN(C(C)C)CC1` [Example B22, 4-[2-[4-[4-(4-isopropylpiperazin-1-yl)-3-methoxy-phenyl]-1,6-dimethyl-pyrrolo[3,2-c]pyridin-2-yl]ethyl]morpholine], for which the inhibition at 1 µM under setting [1] came out at 100% and the inhibition at 1 µM under setting [2] amounted to 100%. For `Cc1cc2c(cc(CCN3CCOCC3)n2C)c(-c2ccc(N3CCN(C(C)C)[C@@H](C)C3)cc2)n1` [Example B23, 4-[2-[4-[4-[(3S)-4-isopropyl-3-methyl-piperazin-1-yl]phenyl]-1,6-dimethyl-pyrrolo[3,2-c]pyridin-2-yl]ethyl]morpholine], the inhibition at 1 µM is, setting by setting: under setting [1], 100%; under setting [2], 100%. Turning to `Cc1cc2c(cc(CCN3CCOCC3)n2C)c(C2CCC(N3CCN(C(C)C)CC3)CC2)n1` (centres unmarked) [Example B26, 4-[2-[4-[4-(4-isopropylpiperazin-1-yl)cyclohexyl]-1,6-dimethyl-pyrrolo[3,2-c]pyridin-2-yl]ethyl]morpholine], the “mTLR7 inhibitory activity (% at 1 μM), IL-6” value (IL-6 release) amounted to 62%. Moreover, under “TNF-α release”, the “mTLR7 inhibitory activity (% at 1 μM), TNF-α” value is 47%.

As to `Cc1cc2c(cc(CCN3CCOCC3)n2C)c(C2CCC(N3CCN(C(C)C)CC3)CC2)n1` (centres unmarked) [Example B27, 4-[2-[4-[4-(4-isopropylpiperazin-1-yl)cyclohexyl]-1,6-dimethyl-pyrrolo[3,2-c]pyridin-2-yl]ethyl]morpholine], for the setting “IL-6 release”, the “mTLR7 inhibitory activity (% at 1 μM), IL-6” value is given as 88%. Besides, the “mTLR7 inhibitory activity (% at 1 μM), TNF-α” value (TNF-α release) was determined as 77%. In the case of `Cc1cc2c(cc(CCN3CCOCC3)n2C)c(-c2ccc(C3CCN(C(C)C)CC3)cc2)n1` [Example B31, 4-[2-[4-[4-(1-isopropyl-4-piperidyl)phenyl]-1,6-dimethyl-pyrrolo[3,2-c]pyridin-2-yl]ethyl]morpholine], the inhibition at 1 µM amounted to 100% under setting [1] and 100% under setting [2]. Turning to `CC(C)N1CCN(c2ccc(-c3nccc4[nH]c(CCCN5CCOCC5)cc34)cc2)CC1` [Example C1, 4-[3-[4-[4-(4-isopropylpiperazin-1-yl)phenyl]-1H-pyrrolo[3,2-c]pyridin-2-yl]propyl]morpholine], under setting [2], the inhibition at 1 µM worked out at 100%. The same measure, in the same setting: then `CN1CCN(c2ccc(-c3nccc4[nH]c(CCCN5CCOCC5)cc34)cc2)CC1` [Example C2, 4-[3-[4-[4-(4-methylpiperazin-1-yl)phenyl]-1H-pyrrolo[3,2-c]pyridin-2-yl]propyl]morpholine], with 100%. In the case of `Cc1cc2[nH]c(CCCN3CCOCC3)cc2c(-c2ccc(N3CCN(C(C)C)CC3)cc2)n1` [Example C3, 4-[3-[4-[4-(4-isopropylpiperazin-1-yl)phenyl]-6-methyl-1H-pyrrolo[3,2-c]pyridin-2-yl]propyl]morpholine], the inhibition at 1 µM under setting [1] was 100% and the inhibition at 1 µM under setting [2] was 100%. For the compound `Cc1cc2[nH]c(CCCN3CCCCC3)cc2c(-c2ccc(N3CCN(C(C)C)CC3)cc2)n1` [Example C5, 4-[4-(4-isopropylpiperazin-1-yl)phenyl]-6-methyl-2-[3-(1-piperidyl)propyl]-1H-pyrrolo[3,2-c]pyridine], the inhibition at 1 µM runs as follows: under setting [1], 100%; under setting [2], 97%. Turning to `Cc1cc2c(cc(CCCN3CCOCC3)n2C)c(-c2ccc(N3CCN(C(C)C)CC3)cc2)n1` [Example C6, 4-[3-[4-[4-(4-isopropylpiperazin-1-yl)phenyl]-1,6-dimethyl-pyrrolo[3,2-c]pyridin-2-yl]propyl]morpholine], the inhibition at 1 µM reads like this: under setting [1], 100%; under setting [2], 100%.
